Source: patent US12319664B2, “Herbicidally active 3-phenylisoxazoline-5-carboxamides of cyclopentenylcarboxylic acid derivatives” (Bayer Aktiengesellschaft, priority 2018, dated 2025)

How the values were obtained:
STEME = assay: Post-emergence herbicidal action against STEME; assay type: in vivo, Stellaria media; details: application rate 80 g/ha, rated visually about 3 weeks after treatment
In short: (§1)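 Weeds grown from seed in sandy loam in the greenhouse, sprayed post-emergence at the one-leaf stage 2 to 3 weeks after sowing. Compounds formulated as WP or EC, applied as aqueous suspension/emulsion with 0.5% additive at 600 l/ha. Activity rated visually after about 3 weeks against untreated controls (100% = plants died, 0% = like control).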

ALOMY = assay: Post-emergence herbicidal action against ALOMY; assay type: in vivo, Alopecurus myosuroides; details: application rate 80 g/ha, rated visually after about 3 weeks
In short: as §1

AVEFA = assay: Post-emergence herbicidal action against AVEFA; assay type: in vivo, Avena fatua; details: application rate 80 g/ha, rated visually after about 3 weeks
In short: as §1

MATIN = assay: Post-emergence herbicidal action against MATIN; assay type: in vivo, Matricaria inodora; details: application rate 80 g/ha, rated visually about 3 weeks after treatment
Experimental: [table] 2. Post-emergence herbicidal action against harmful plants and crop plant compatibility Seeds of monocotyledonous and dicotyledonous weeds and crop plants are placed in sandy loam in plastic or wood-fibre pots, covered with soil and cultivated in a greenhouse under controlled growth conditions. 2 to 3 weeks after sowing, the test plants are treated at the one-leaf stage. The compounds of the invention, formulated in the form of wettable powders (WP) or as emulsion concentrates (EC), are then sprayed onto the green parts of the plants as aqueous suspension or emulsion with addition of 0.5% additive at a water application rate of 600 l/ha (converted). After the test plants have been kept in the greenhouse under optimum growth conditions for about 3 weeks, the activity of the preparations is rated visually in comparison to untreated controls. For example, 100% activity=the plants have died, 0% activity=like control plants.

VERPE = assay: Post-emergence herbicidal action against VERPE; assay type: in vivo, Veronica persica; details: application rate 80 g/ha
In short: as §1

LOLRI = assay: Post-emergence herbicidal action against LOLRI; assay type: in vivo, Lolium rigidum; details: application rate 80 g/ha, rated visually after about 3 weeks
In short: as §1

PHBPU = assay: Post-emergence herbicidal action against PHBPU; assay type: in vivo, Pharbitis purpurea; details: application rate 80 g/ha, rated visually about 3 weeks after treatment
In short: as §1

POLCO = assay: Post-emergence herbicidal action against POLCO; assay type: in vivo, Polygonum convolvulus; details: application rate 80 g/ha, rated visually about 3 weeks after treatment
In short: as §1

AMARE = assay: Post-emergence herbicidal action against AMARE; assay type: in vivo, Amaranthus retroflexus; details: application rate 80 g/ha, rated visually about 3 weeks after treatment
In short: as §1

HORMU = assay: Post-emergence herbicidal action against HORMU; assay type: in vivo, Hordeum murinum; details: application rate 80 g/ha
In short: as §1

SETVI = assay: Post-emergence herbicidal action against SETVI; assay type: in vivo, Setaria viridis; details: application rate 80 g/ha, rated visually after about 3 weeks
In short: as §1

ECHCG = assay: Post-emergence herbicidal action against ECHCG; assay type: in vivo, Echinochloa crus-galli; details: application rate 80 g/ha, rated visually after about 3 weeks
In short: as §1

ABUTH = assay: Post-emergence herbicidal action against ABUTH; assay type: in vivo, Abutilon theophrasti; details: application rate 80 g/ha, rated visually about 3 weeks after treatment
In short: as §1

| SMILES | Herbicidal action against [%] STEME (STEME) [%] | Herbicidal action against [%] ALOMY (ALOMY) [%] | Herbicidal action against [%] AVEFA (AVEFA) [%] | Herbicidal action against [%] MATIN (MATIN) [%] | Herbicidal action against [%] VERPE (VERPE) [%] | Herbicidal action against [%] LOLRI (LOLRI) [%] | Herbicidal action against [%] PHBPU (PHBPU) [%] | Herbicidal action against [%] POLCO (POLCO) [%] | Herbicidal action against [%] AMARE (AMARE) [%] | Herbicidal action against [%] HORMU (HORMU) [%] | Herbicidal action against [%] SETVI (SETVI) [%] | Herbicidal action against [%] ECHCG (ECHCG) [%] | Herbicidal action against [%] ABUTH (ABUTH) [%] |
| --- | --- | --- | --- | --- | --- | --- | --- | --- | --- | --- | --- | --- | --- |
| CCOC(=O)C1C=CC(NC(=O)C2(C(F)(F)F)CC(c3cc(C)cc(C)c3)=NO2)C1 (mixture of isomers) [Example I-053] | 90 | 90 | 90 | 80 | 80 | 90 | 80 |  |  |  |  |  |  |
| Cc1cc(F)cc(C2=NOC(C(=O)N[C@H]3C=C[C@@H](C(=O)OCCCl)C3)(C(F)(F)F)C2)c1 (stereo partly shown) [Example I-031] |  | 90 | 90 | 80 | 80 | 100 | 80 | 90 | 90 | 90 | 90 | 80 |  |
| C=CC1(C(=O)N[C@H]2C=C[C@@H](C(=O)OCCOC)C2)CC(c2cc(F)cc(F)c2)=NO1 (stereo partly shown) [Example I-018] |  | 100 | 100 | 80 | 90 | 100 |  | 100 | 90 | 90 | 90 | 100 | 90 |
| CCOC(=O)C1C=CC(NC(=O)C2(C(F)(F)F)CC(c3cccc(Cl)c3)=NO2)C1 (mixture of isomers) [Example I-042] | 90 | 100 | 100 | 80 | 80 | 100 |  |  |  | 90 | 80 | 90 | 80 |
| COC(=O)C1C=CC(NC(=O)C2(C(F)(F)F)CC(c3cccc(Cl)c3)=NO2)C1 (mixture of isomers) [Example I-046] | 90 | 90 | 90 | 80 | 80 | 100 |  |  | 80 | 100 | 80 | 90 | 90 |
| O=C(OCC(F)(F)F)C1C=CC(NC(=O)C2(C(F)(F)F)CC(c3cc(Cl)cc(Cl)c3)=NO2)C1 (mixture of isomers) [Example I-041] | 80 |  | 90 | 80 |  | 80 |  |  |  | 90 |  | 80 | 80 |
| O=C(OCCCl)C1C=CC(NC(=O)C2(C(F)(F)F)CC(c3cc(Cl)cc(Cl)c3)=NO2)C1 (mixture of isomers) [Example I-040] | 90 | 90 | 90 | 80 | 80 | 90 |  |  |  | 90 |  | 90 | 80 |
| C=CC1(C(=O)NC2C=CC(C(=O)O)C2)CC(c2cc(F)cc(F)c2)=NO1 (stereo not shown) [Example I-011] | 90 | 90 | 90 | 80 | 80 | 90 |  | 80 |  | 80 | 80 | 90 |  |
